Laboratory results from the supplement of paper PMC10307832.

How the values were obtained:
Assay in all cases: relative viability (nuclei count vs DMSO), 5 days (fraction); higher = more cells survive
[1] = tested on: A-427
How it was run: (§1)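 Dosing by pin tool came one day after lung cancer cell lines were seeded in 1536-well plates, using either one drug or a fixed anchor-drug dose plus five library-drug doses (not always all listed) in √10 steps. After 5 days, nuclei were counted on 4× images. Relative viability is treated-well nuclei count divided by vehicle-well nuclei count, and values are medians of duplicate plates.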

[2] = tested on: COR-L 105
How it was run: as §1

[3] = tested on: ChaGo-K-1
How it was run: as §1

[4] = tested on: EKVX
How it was run: as §1

[5] = tested on: EMC-BAC-2
How it was run: as §1

[6] = tested on: EPLC-272H
How it was run: as §1

[7] = tested on: HARA
How it was run: as §1

[8] = tested on: HCC-44
How it was run: as §1

[9] = tested on: LU99A
How it was run: as §1

[10] = tested on: NCI-H1650
How it was run: as §1

[11] = tested on: NCI-H1734
How it was run: as §1

[12] = tested on: NCI-H1755
How it was run: as §1

[13] = tested on: NCI-H1792
How it was run: as §1

[14] = tested on: NCI-H1993
How it was run: as §1

[15] = tested on: NCI-H2405
How it was run: as §1

[16] = tested on: NCI-H460
How it was run: as §1

[17] = tested on: NCI-H596
How it was run: as §1

[18] = tested on: NCI-H647
How it was run: as §1

[19] = tested on: RERF-LC-KJ
How it was run: as §1

For `CCNC(=O)c1noc(-c2cc(C(C)C)c(O)cc2O)c1-c1ccc(CN2CCOCC2)cc1` [Luminespib] + CC(C)C[C@H](NC(=O)[C@H](Cc1ccccc1)NC(=O)c1cnccn1)B(O)O [Bortezomib] (partner 0.002 µM), the relative viability ([1]; first compound 0.002 µM) was 1.04, the relative viability ([1]; first compound 0.006325 µM) was 0.926 and the relative viability ([1]; first compound 0.02 µM) was 0.811. It also gave a relative viability ([1]; first compound 0.06325 µM) of 0.94, a relative viability ([1]; first compound 0.2 µM) of 0.584 and a relative viability ([2]; first compound 0.002 µM) of 0.992. It also gave a relative viability ([2]; first compound 0.006325 µM) of 0.75, a relative viability ([2]; first compound 0.02 µM) of 0.342 and a relative viability ([2]; first compound 0.06325 µM) of 0.176. The relative viability ([2]; first compound 0.2 µM) was 0.206, the relative viability ([3]; first compound 0.002 µM) was 1.11 and the relative viability ([3]; first compound 0.02 µM) was 0.998. It also gave a relative viability ([3]; first compound 0.06325 µM) of 0.528, a relative viability ([3]; first compound 0.2 µM) of 0.294 and a relative viability ([4]; first compound 0.002 µM) of 0.998. The relative viability ([4]; first compound 0.006325 µM) was 1.03, the relative viability ([4]; first compound 0.02 µM) was 0.852 and the relative viability ([4]; first compound 0.06325 µM) was 0.824. The relative viability ([4]; first compound 0.2 µM) was 0.0943, the relative viability ([5]; first compound 0.002 µM) was 1.1 and the relative viability ([5]; first compound 0.006325 µM) was 1.02. It also gave a relative viability ([5]; first compound 0.02 µM) of 0.844, a relative viability ([5]; first compound 0.06325 µM) of 1.1 and a relative viability ([5]; first compound 0.2 µM) of 0.913. The relative viability ([6]; first compound 0.006325 µM) was 0.83, the relative viability ([6]; first compound 0.02 µM) was 0.678 and the relative viability ([6]; first compound 0.06325 µM) was 0.913. The relative viability ([6]; first compound 0.2 µM) was 0.293, the relative viability ([7]; first compound 0.002 µM) was 1.12 and the relative viability ([7]; first compound 0.006325 µM) was 1. The relative viability ([7]; first compound 0.02 µM) was 1.14, the relative viability ([7]; first compound 0.06325 µM) was 0.474 and the relative viability ([7]; first compound 0.2 µM) was 0.0833. For the same compound, the relative viability ([8]; first compound 0.002 µM) was 0.895, the relative viability ([8]; first compound 0.006325 µM) was 0.881 and the relative viability ([8]; first compound 0.02 µM) was 1.09. For the same compound, the relative viability ([8]; first compound 0.06325 µM) was 0.139, the relative viability ([8]; first compound 0.2 µM) was 0.145 and the relative viability ([9]; first compound 0.002 µM) was 1.3. It also gave a relative viability ([9]; first compound 0.006325 µM) of 1.11, a relative viability ([9]; first compound 0.02 µM) of 0.538 and a relative viability ([9]; first compound 0.06325 µM) of 0.105. The relative viability ([9]; first compound 0.2 µM) was 0.117, the relative viability ([10]; first compound 0.002 µM) was 0.209 and the relative viability ([10]; first compound 0.006325 µM) was 0.193. The relative viability ([10]; first compound 0.02 µM) was 0.201, the relative viability ([10]; first compound 0.06325 µM) was 0.222 and the relative viability ([10]; first compound 0.2 µM) was 0.194. It also gave a relative viability ([11]; first compound 0.002 µM) of 1.06, a relative viability ([11]; first compound 0.006325 µM) of 0.823 and a relative viability ([11]; first compound 0.02 µM) of 0.698. It also gave a relative viability ([11]; first compound 0.06325 µM) of 0.118, a relative viability ([11]; first compound 0.2 µM) of 0.117 and a relative viability ([12]; first compound 0.002 µM) of 0.992. For the same compound, the relative viability ([12]; first compound 0.006325 µM) was 0.909, the relative viability ([12]; first compound 0.02 µM) was 0.954 and the relative viability ([12]; first compound 0.06325 µM) was 0.528. For the same compound, the relative viability ([12]; first compound 0.2 µM) was 0.169, the relative viability ([13]; first compound 0.002 µM) was 0.93 and the relative viability ([13]; first compound 0.006325 µM) was 0.888. For the same compound, the relative viability ([13]; first compound 0.02 µM) was 0.633, the relative viability ([13]; first compound 0.06325 µM) was 0.478 and the relative viability ([13]; first compound 0.2 µM) was 0.36. The relative viability ([14]; first compound 0.002 µM) was 0.998, the relative viability ([14]; first compound 0.006325 µM) was 1.12 and the relative viability ([14]; first compound 0.02 µM) was 0.68. It also gave a relative viability ([14]; first compound 0.06325 µM) of 0.816, a relative viability ([14]; first compound 0.2 µM) of 0.374 and a relative viability ([15]; first compound 0.002 µM) of 0.987. For the same compound, the relative viability ([15]; first compound 0.006325 µM) was 0.533, the relative viability ([15]; first compound 0.02 µM) was 0.835 and the relative viability ([15]; first compound 0.06325 µM) was 0.9. It also gave a relative viability ([15]; first compound 0.2 µM) of 0.358, a relative viability ([16]; first compound 0.002 µM) of 1.09 and a relative viability ([16]; first compound 0.006325 µM) of 1.14. The relative viability ([16]; first compound 0.02 µM) was 0.0229, the relative viability ([16]; first compound 0.06325 µM) was 0.011 and the relative viability ([16]; first compound 0.2 µM) was 0.0138. The relative viability ([17]; first compound 0.002 µM) was 1.03, the relative viability ([17]; first compound 0.006325 µM) was 0.915 and the relative viability ([17]; first compound 0.06325 µM) was 1.07. For the same compound, the relative viability ([17]; first compound 0.2 µM) was 0.999, the relative viability ([18]; first compound 0.002 µM) was 0.999 and the relative viability ([18]; first compound 0.006325 µM) was 0.987. The relative viability ([18]; first compound 0.02 µM) was 0.29, the relative viability ([18]; first compound 0.06325 µM) was 0.0859 and the relative viability ([18]; first compound 0.2 µM) was 0.0972. For the same compound, the relative viability ([19]; first compound 0.002 µM) was 1.06, the relative viability ([19]; first compound 0.006325 µM) was 1.13 and the relative viability ([19]; first compound 0.02 µM) was 1.06. For the same compound, the relative viability ([19]; first compound 0.06325 µM) was 0.69 and the relative viability ([19]; first compound 0.2 µM) was 0.268.
